In US4206215A, “Antimicrobial bis-[4-(substituted-amino)-1-pyridinium]alkanes” (Sterling Drug Inc., priority 1977, dated 1980):
Like-named read-outs stand apart in the source and are kept apart here.

What was measured:
S. Aureus Smith = assay: In vitro antibacterial activity, MIC (modified Autotiter method); type: cell-based, Staphylococcus aureus; conditions: 18-20 hours at 37° C.
How it was run: (§1)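 Autotiter-based broth dilution, modified from Goss: 1,000 mcg./ml. stock, twofold steps in sterile water, then inoculated 2x semisynthetic medium (glucose) dispensed automatically. Final range 500–0.06 mcg./ml.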

E. coli 100/B22 = assay: as above; type: cell-based, Escherichia coli; conditions: for MIC E. coli 100/B22: 18-20 hours at 37° C.
How it was run: as §1

E. coli AB1932-1 = assay: as above; type: cell-based, Escherichia coli; conditions: 18-20 hours at 37° C.
How it was run: as §1

E. coli Vogel = assay: as above; type: cell-based, Escherichia coli; conditions: 18-20 hours at 37° C.
How it was run: as §1

K. pneum. 39645 = assay: as above; type: cell-based, Klebsiella pneumoniae; conditions: 18-20 hours at 37° C.
How it was run: as §1

P. mirab. MGH-1 = assay: as above; type: cell-based, Proteus mirabilis; conditions: 18-20 hours at 37° C.
How it was run: as §1

Ps. aerug. MGH-2 = assay: as above; type: cell-based, Pseudomonas aeruginosa; conditions: 18-20 hours at 37° C.
How it was run: as §1

S. pyogen. C203 = assay: as above; type: cell-based, Streptococcus pyogenes; conditions: 18-20 hours at 37° C.
How it was run: as §1

A. niger 16404 = assay: In vitro antifungal activity, MIC (modified Autotiter method); type: cell-based, Aspergillus niger; conditions: 18-20 hours at 37° C.
How it was run: as §1

C. albicans 10231 = assay: as above; type: cell-based, Candida albicans; conditions: 18-20 hours at 37° C.
How it was run: as §1

C. albicans Wisc. = assay: as above; type: cell-based, Candida albicans; conditions: 18-20 hours at 37° C.
How it was run: as §1

T. menta. 9129 = assay: as above; type: cell-based, Trichophyton mentagrophytes; conditions: 18-20 hours at 37° C.
How it was run: as §1

[1] = Acute oral toxicity (ALD50); type: in vivo; conditions: mouse, in vivo, po, mice, read-out: 7-Day ALD50
Description: (§2) The acute oral toxicity (ALD50) of several representative examples was determined as follows: Groups of 3 young adult male Swiss-Webster strain albino mice were fasted approximately 4 hours before medication and then medicated once orally by stomach tube.

[2] = tested on: young adult male Swiss-Webster strain albino mice; assay: Acute oral toxicity (ALD50); type: in vivo
Description: as §2

[3] = 125 mg/kg oral, suspension in 1% G.T.
[4] = 250 mg/kg oral, suspension in 1% G.T.
[5] = 500 mg/kg oral, suspension in 1% G.T.
[6] = 1000 mg/kg oral, suspension in 1% G.T.
[7] = 125 mg/kg oral, aqueous solution
[8] = 250 mg/kg oral, aqueous solution
[9] = 500 mg/kg oral, aqueous solution
[10] = 1000 mg/kg oral, aqueous solution

Row | Structure (SMILES) | MIC E. coli AB1932-1 (E. coli AB1932-1) [µg/mL] | MIC K. pneum. 39645 (K. pneum. 39645) [µg/mL] | MIC P. mirab. MGH-1 (P. mirab. MGH-1) [µg/mL] | MIC A. niger 16404 (A. niger 16404) [µg/mL] | MIC C. albicans 10231 (C. albicans 10231) [µg/mL] | MIC C. albicans Wisc. (C. albicans Wisc.) [µg/mL] | MIC S. Aureus Smith (S. Aureus Smith) [µg/mL] | MIC E. coli 100/B22 (E. coli 100/B22) [µg/mL] | MIC E. coli Vogel (E. coli Vogel) [µg/mL] | MIC Ps. aerug. MGH-2 (Ps. aerug. MGH-2) [µg/mL] | MIC S. pyogen. C203 (S. pyogen. C203) [µg/mL] | MIC T. menta. 9129 (T. menta. 9129) [µg/mL] | LD50 at 168 h ([1]; aqueous solution) [mg/kg] | Mortality 7 Days [2, 7] | Mortality 7 Days [2, 8] | Mortality 24 Hrs [2, 8] | Mortality 7 Days [2, 9] | Mortality 24 Hrs [2, 9] | Mortality 7 Days [2, 10] | Mortality 24 Hrs [2, 10] | other results
1 | CCCCCCCNc1cc[n+](CCCCCCCCCCCCCC[n+]2ccc(NCCCCCCC)cc2)cc1 [Example 2, 1,14-bis-[4-(heptylamino)-1-pyridinium]tetradecane dichloride] | 1.0 | 3.9 | 3.9 | 7.8 | 3.9 | 7.8 | – | – | – | – | – | – | – | – | – | – | – | – | – | – | MIC (S. Aureus Smith; Staphylococcus aureus, 20 h, read-out: MIC S. Aureus Smith): 1 µg/mL; MIC (E. coli 100/B22; Escherichia coli, 100/B22, 20 h, read-out: MIC E. coli 100/B22, 18-20 hours at 37° C.): 1 µg/mL; MIC (E. coli Vogel; Escherichia coli, 20 h, read-out: MIC E. coli Vogel): 1.95 µg/mL; MIC (Ps. aerug. MGH-2; Pseudomonas aeruginosa, 20 h, read-out: MIC Ps. aerug. MGH-2): 1.95 µg/mL; MIC (S. pyogen. C203; Streptococcus pyogenes, 20 h, read-out: MIC S. pyogen. C203): 1 µg/mL; MIC (T. menta. 9129; Trichophyton mentagrophytes, 20 h, read-out: MIC T. menta. 9129): 1 µg/mL; LD50 at 168 h ([1]; suspension in 1% gum tragacanth): 1000 mg/kg; Mortality 7 Days [2, 3]: 0/3; Mortality 24 Hrs [2, 3]: 0/3; Mortality 7 Days [2, 4]: 1/3; Mortality 24 Hrs [2, 4]: 0/3; Mortality 7 Days [2, 5]: 0/3; Mortality 24 Hrs [2, 5]: 0/3; Mortality 7 Days [2, 6]: 1/3; Mortality 24 Hrs [2, 6]: 0/3
2 | CCCCCCNc1cc[n+](CCCCCCCCCCCCCC[n+]2ccc(NCCCCCC)cc2)cc1 [Example 6] | 0.5 | 1.0 | 3.9 | 3.9 | 1.0 | 1.95 | 0.5 | 0.5 | 1.0 | 3.9 | 1.95 | 0.5 | 315 | 1/3 | 1/3 | 0/3 | 2/3 | 2/3 | 3/3 | 3/3 | Mortality 24 Hrs [2, 7]: 1/3
3 | CCCCCCCCNc1cc[n+](CCCCCCCC[n+]2ccc(NCCCCCCCC)cc2)cc1 [Example 12, 1,8-Bis-[4-(octylamino)-1-pyridinium]octane dichloride] | 1.0 | 1.0 | 3.9 | 7.8 | 1.0 | 1.0 | 0.25 | 0.5 | 1.0 | 7.8 | 0.5 | 1.0 | 750 | 0/3 | 0/3 | 0/3 | 1/3 | 1/3 | 2/3 | 2/3 | Mortality 24 Hrs [2, 7]: 0/3
4 | CCCCCCCNc1cc[n+](CCCCCCCC[n+]2ccc(NCCCCCCC)cc2)cc1 [Example 23] | 1.0 | 1.95 | 62.6 | 7.8 | 1.0 | 1.95 | 0.5 | 1.95 | 1.95 | 31.3 | 1.0 | 1.95 | 625 | 0/3 | 0/3 | 0/3 | 1/3 | 1/3 | 3/3 | 3/3 | Mortality 24 Hrs [2, 7]: 0/3
5 | CCCCCCCNc1cc[n+](CCCCCCCCC[n+]2ccc(NCCCCCCC)cc2)cc1 [Example 25, 1,9-Bis-[4-(heptylamino)-1-pyridinium]nonane dichloride] | 1.0 | 1.95 | 31.3 | 1.95 | 1.0 | 1.0 | 0.25 | 1.0 | 1.0 | 31.3 | 0.5 | 1.0 | 500 | – | 1/3 | 1/3 | 1/3 | 1/3 | 3/3 | 3/3 | Autopsy, gross tissue changes ([2]; oral, 7 days, Example 25: 1000 mg./kg.): congestion of the glandular portion of the stomachs of two of the three mice was observed
6 | CCCCCCCNc1cc[n+](CCCCCCCCCC[n+]2ccc(NCCCCCCC)cc2)cc1 [Example 27] | 1.0 | 1.0 | 7.8 | 3.9 | 1.96 | 1.0 | 0.25 | 0.5 | 0.5 | 7.8 | 0.5 | 1.0 | 250 | 1/3 | 0/3 | 0/3 | 1/3 | 1/3 | 3/3 | 1/3 | Mortality 24 Hrs [2, 7]: 0/3
